US20240327379A1, “MANDELATE FORM OF 1-(4-(((6-AMINO-5-(4-PHENOXYPHENYL)PYRIMIDIN-4-YL)AMINO)METHYL)PIPERIDIN-1-YL)PROP-2-EN-1-ONE” (Sandoz AG, priority 2021, published 2024)

Experiments:
[1] = Gravimetric moisture sorption (GMS); type: physicochemical; settings: (25±0.1)° C.
Description: Gravimetric moisture sorption was performed with an SPSx-1μ moisture sorption analyzer (ProUmid, Ulm). The measurement cycle was started at ambient relative humidity (RH) of 30%. RH was then decreased to 5% in 5% steps, followed by a further decrease to 3% and to 0%. […] Finally, RH was increased to ambient relative humidity of 30% in 5% steps. The time per step was set to a minimum of 2 hours and a maximum of 6 hours. If an equilibrium condition with a constant mass of =0.01% within 1 hour was reached before the maximum time for all examined samples the sequential humidity step was applied before the maximum time of 6 hours. If no equilibrium was achieved the consecutive humidity step was applied after the maximum time of 6 hours. The temperature was (25±0.1)° C.

[2] = Thermogravimetric analysis (TGA); type: physicochemical; settings: heated from 25° C. at 10 K/min, nitrogen purge
Description: TGA was performed on a Mettler TGA/DSC 1 instrument. The sample (6.53 mg) was heated in a 100 microliter aluminium pan, closed with an aluminium lid, from 25 to 250° C. at a rate of 10 K/min. The lid was automatically pierced at the beginning of the measurement. Nitrogen (purge rate 30 mL/min) was used as purge gas.

hygroscopic behaviour ([1]; GMS 0-90% RH): slightly hygroscopic
mass difference in the sorption cycle between 0 and 80% RH ([1]; GMS sorption cycle, 0 to 80% RH): about 0.5 w-%
maximum uptake between 0 and 90% RH ([1]; GMS, 0 to 90% RH): about 0.6%
mass loss from the beginning of the measurement until about 170° C. [2]: about 0.1%
Structure (SMILES): C=CC(=O)N1CCC(CNc2ncnc(N)c2-c2ccc(Oc3ccccc3)cc2)CC1 [crystalline evobrutinib mandelate form]
physical stability during moisture sorption/desorption (hysteresis, PXRD after the experiment) ([1]; GMS cycle 0-90% RH, PXRD after the experiment): no structural changes appear during the experiment
